Test results reported in US20150157575A1, “Pharmaceutical Formulations Comprising Vilazodone” (Forest Laboratories Holdings Ltd., priority 2013, published 2015).

How the values were obtained:
clinical = test: clinical; design: species or system human; settings: in vivo
Method: An open-label, multiple-dose, single-sequence study to evaluate the effect of steady-state carbamazepine XR, 400 mg once daily, a CYP3A4 substrate and inducer, on the pharmacokinetics of steady-state vilazodone 40 mg tablets once daily, with hardness of more than 10 kp and less than 14 kp, preferably about 12 kp as shown in Table 3 (No Tablet Breakage). Vilazodone was co-administered with carbamazepine XR (extended release formulation). Carbamazepine is an antiepileptic drug approved for the treatment of psychomotor and grand mal seizures is metabolized by CYP3A4, and is a CYP3A4 inducer.
All subjects were healthy, nonsmoking male or female volunteers who were 18-45 (Study 2) years of age. Inclusion and exclusion criteria were typical of the criteria used in pharmacokinetic studies in healthy volunteers as known in the art. Inclusion criteria used included agreement to use an effective measure of contraception, body mass index (BMI)>18 and ≦30 kg/m^2 (BMI=18 allowed), normal or clinically non-significant results on physical examination, medical history, serum chemistry, hematology, and urinalysis; negative hepatitis B antigen and C antibody tests, and negative HIV test at screening. Exclusion criteria included clinically significant electrocardiogram results or QT prolongation, clinically significant disease state, history of alcohol abuse, ingestion of food, drink, or drug that may interfere with CYP enzyme activity (e.g., cruciferous vegetables, caffeine, alcohol), known sensitivity to study drug or other drugs from the same class, and use of prohibited concomitant prescription or over-the counter medications.
All volunteers received 4 treatments (A, B, C, and D) in the same, fixed sequence: Treatment A consisted of vilazodone alone on Days 1-9 and was followed by a 14-day washout, Treatment B was carbamazepine XR alone for 19 days (Days 24-42), Treatment C was vilazodone plus carbamazepine XR for 9 days (Days 43-51), and Treatment D was carbamazepine alone for 3 days (Days 52-54). Once-daily doses of study drug were administered in the morning after breakfast; twice-daily doses were administered in the morning after breakfast and 12 hours later in the evening after dinner Study drug was administered within 30 minutes after the end of the corresponding meal.
Blood samples to determine plasma concentrations of vilazodone, M17 (the metabolite of vilazodone), carbamazepine, and carbamazepine-10,11-epoxide (one of the pharmacologically active metabolites of carbamazepine) were collected into tubes pretreated with K2EDTA. For vilazodone and M17 analyses, blood samples (approximately 6 mL) were collected at pre-dose on Days 1, 7, 8, 49, and 50. […] For the analyses of carbamazepine and carbamazepine-10,11-epoxide, blood samples were collected at pre-dose on Days 24, 40, 41, 49 and 50.
Blood samples were centrifuged at no less than 2500 g for 10 minutes at 4° C. within 30 minutes of the sample draw. Plasma was harvested and transferred to polypropylene tubes and flash frozen in a dry ice bath with isopropyl alcohol or methanol. Samples for vilazodone analyses were stored at approximately −70° C. and analyzed. Samples for carbamazepine analyses were stored at −20° C. and analyzed.
Plasma samples were analyzed for vilazodone, M17, carbamazepine and/or carbamazepine-10,11-epoxide concentrations using liquid chromatography coupled with tandem mass spectrometry (LC/MS/MS). For vilazodone and M17, analytes of interest were detected by electrospray ionization mass spectrometry in the negative ion multiple reaction monitoring mode. The assay was linear in the concentration range of 0.5 to 250 ng/mL for vilazodone and 0.25 to 125 ng/mL for M17.
Based on 50 ìL of human plasma with K2EDTA as the anticoagulant, the lower limit of quantification (LLOQ) was 0.5 ng/mL for vilazodone and 0.25 ng/mL for M17. […]

[1] = Study 2: single-dose pharmacokinetics in severe hepatic impairment and matched healthy controls; settings: for AUC(0-inf) / Cmax / Tmax / half-life: both, human, plasma, po, 20 mg, vilazodone 20 mg single oral dose; for AUC(0-inf): AUC0-∞
Method: The pharmacokinetics, tolerability, and safety of vilazodone were investigated in two separate trials involving participants with hepatic impairment, compared with healthy controls. An Open-label, parallel-group, single-dose pharmacokinetic studies, a single, oral dose of vilazodone (20 mg with increased hardness) was administered to participants with mild, moderate, or severe hepatic impairment or individually matched controls. Outcomes included pharmacokinetic parameters and safety (vital signs, clinical laboratory evaluations, ECG, and adverse events [AEs]). Plasma samples were analyzed using validated LC/MS/MS methods.
Data from two, open-label, parallel-group, single-dose pharmacokinetic studies investigated single-dose vilazodone (20 mg with increased hardness) in participants with hepatic impairment and normal hepatic function. The first study (Study 1) included participants with mild or moderate hepatic impairment and healthy controls. The second study (Study 2) included participants with severe hepatic impairment or healthy participants. These studies were both designed in accordance with the FDA guidance for evaluation of pharmacokinetics in the presence of hepatic impairment. The differences between the study protocols were minimal, so both methodologies are described together, with any differences noted below.
Participants were men and women, 18 to 70 years of age, with a body mass index (BMI) of 18-42 kg/m^2. Women were not pregnant or breastfeeding and agreed to utilize a medically accepted form of contraception during the study (as did men in Study 2). In Study 2, participants were also required to be non-smokers or light smokers (fewer than 10 cigarettes per day; there was no stipulation in Study 1) and to have a sitting pulse rate of 50-100 bpm at screening and prior to dosing on Day 1. […] Each healthy control was matched with a hepatically impaired participant. Control participants in the Study 1 were matched with a hepatically impaired individual according to age (±10 years), sex, and BMI (±15%). Control participants in Study 2 were matched with a hepatically impaired individual according to age (±5 years), sex, and weight (±10%).
Participants with hepatic dysfunction were classified according to the Child-Pugh hepatic dysfunction staging system as having mild (5-6 points) or moderate (7-9 points) hepatic impairment (Study 1), or severe impairment (10-15 points; Study 2). Participants with severe impairment also had chronic liver disease and/or compensated cirrhosis, as evidenced by liver biopsy, computerized tomography or ultrasonic evidence of hepatic fibrosis, clinical evidence of chronic liver disease, or a colloid shift on a liver-spleen scan. Exclusion criteria included the following: a clinical diagnosis or history of depression; treatment with antidepressants, anxiolytics, psychoactive medications (including herbal supplements), other serotonergic drugs, or drugs that inhibit CYP3A4 (eg, ketoconazole, diltiazem, macrolide antibiotics); a hypersensitivity to vilazodone or other SSRIs or 5-HT agonists; history or evidence of alcohol or substance abuse, cancer, human immunodeficiency virus, hepatitis B (Study 1 and healthy controls, both studies) hepatitis C (healthy controls, both studies), or other clinically significant illnesses or medical conditions. Participants with severe hepatic impairment were excluded if they had bleeding diathesis, advanced ascites requiring large-volume paracentesis within 1 week of dosing, esophageal bleeding within the previous 8 weeks, history of portosystemic shunt or hepatic transplant, or evidence of hepatic encephalopathy, hepatorenal syndrome, or other evidence of rapid hepatic deterioration.
Participants were not allowed to have previously taken vilazodone or participated in any clinical investigation requiring repeated blood draws within 60 days of dosing, or donated blood or plasma within 60 or 30 days, respectively.

[2] = Control matched to Severe Impairment n = 8
[3] = Severe Impairment n = 4 (who did not vomit)

Q: Which results are given for `NC(=O)N1c2ccccc2C2OC2c2ccccc21` (centres unmarked) [carbamazepine-10,11-epoxide]?
A: tmax, Median (min-max) (clinical; human): 12.0 h; Cavg, ss, Mean (SD) (clinical): 0.6 (0.2) μg/mL

Q: For `N#Cc1ccc2[nH]cc(CCCC(=O)O)c2c1` [M17], which AUC(0-inf) [1, 2] is on record?
A: 51.4 ± 21.4 ng·h/mL

Q: What about the AUC(0-inf) [1, 3] of the same compound?
A: 29.9 ± 8.15 ng·h/mL

Q: What about the Cmax [1, 2] of the same compound?
A: 1.95 ± 0.56 ng/mL

Q: And the Cmax [1, 3]?
A: 1.64 ± 0.56 ng/mL

Q: And the Tmax ([1]; Tmax (mean), Control matched to Severe Impairment n = 8)?
A: 6 ± 4.14 h

Q: What about the Tmax ([1]; Tmax (mean), Severe Impairment n = 4 (who did not vomit)) of the same compound?
A: 4.25 ± 1.26 h

Q: And the Tmax ([1]; Tmax, Median, Control matched to Severe Impairment n = 8)?
A: 5 h

Q: What about the Tmax ([1]; Tmax, Median, Severe Impairment n = 4 (who did not vomit)) of the same compound?
A: 4 h

Q: And the half-life ([1]; t1/2, Control matched to Severe Impairment n = 8)?
A: 17.4 ± 4.25 h

Q: And the half-life ([1]; t1/2, Severe Impairment n = 4 (who did not vomit))?
A: 17.8 ± 9.57 h

Q: And the “ratio of M17 to vilazodone (AUC0-∞)” value ([1]; normal controls)?
A: 0.07

Q: And the “ratio of M17 to vilazodone (AUC0-∞)” value ([1]; severe hepatic impairment)?
A: 0.05

Q: What about the “mean AUC0-∞ lower than in normal controls” value ([1]; severe impairment (who did not vomit) vs normal controls, vilazodone 20 mg single dose) of the same compound?
A: approximately 42%

Q: For `NC(=O)N1c2ccccc2C=Cc2ccccc21` [Carbamazepine, carbamazepine], which concentration at 42 day (clinical; both sexes, human, Cavg, ss, Mean (SD)) is on record?
A: 5500 ng/mL

Q: And the Tmax (clinical; both sexes, human, tmax, Median (min-max))?
A: 10 h
